# Laboratory results as given in patent US5118705A, “Water soluble salts of purpuromycin and pharmaceutical formulations thereof” (Gruppo Lepetit S.p.A., priority 1990, dated 1992).
# Entries after “also recorded” stand apart in the source; their conditions may differ. Where a name gives a salt, the structure may show the parent alone. Read-outs that look alike come from different tables or passages of the source.
# What was measured:
# [1] = Biological activity (general statement); conditions: formed by hydrolysis of the carbomethoxy group of purpuromycin
# Stability = assay type: physicochemical
# [2] = test system: Trichomonas vaginalis strain TVL; assay: Activity against Trichomonas vaginalis, two-fold tube dilution method; assay type: cell-based; conditions: Trichomonas vaginalis, 48 hours at 37° C.
# Method: Trichomonas vaginalis (applicant's internal code TVL) was grown on Trichomonas Culture Medium Base (Merck) plus 10% heat treated horse serum. Inoculum: approximately 10^5 organisms/ml. Incubation: 48 hours at 37° C.
# Gardnerella vaginalis = assay: In vitro activity, M.I.C., agar dilution; assay type: cell-based; conditions: salts calculated as weight of purpuromycin, ATCC 14018 and 10 clinical isolates, all same M.I.C., inoculum ca. 10^5 CFU, 48 h
# Method: **The assay was carried out on strain ATCC 14018 and 10 clinical isolates
# Incubation was for 48 h in an anaerobic hood (37° C.); inoculum ca. 10^5 CFU.
# [3] = Solubility and pH of solution; assay type: physicochemical
# [4] = test system: Gram-positive and Gram-negative bacteria and fungi; conditions: reported in UK Patent 1455128 and U.S. Pat. No. 3,914,257; cited from earlier work
# Candida kruzei L 244 = assay: Activity against Candida strains, two-fold dilution method; assay type: cell-based; conditions: L244, 20 h at 30° C., pH 7.4
# Method: (§1) This set of experiments included also one strain each of two other Candida species, Candida tropicalis and Candida kruzei. The M.I.C. were determined by the two-fold dilution method in buffered (0.01 M phosphate buffer, pH 7.4) yeast nitrogen base medium (Difco) supplemented with 1.5 g/liter asparagine in microtiter trays. Inocula were approximately 10^4 colony forming units/ml. Incubation was for 20 h at 30° C. Purpuromycin was dissolved in DMSO and added to the cultures as above. The following TABLE IV reports the MIC values for the whole set of strains.
# Candida tropicalis L 243 = assay: as above; assay type: cell-based; conditions: L243, 20 h at 30° C., pH 7.4
# Method: as §1
# [5] = test system: Candida albicans (19 clinical isolates); assay: as above; assay type: cell-based; conditions: 20 h at 30° C., pH 7.4
# Method: as §1
# [6] = test system: Gardnerella vaginalis ATCC 14018 and other 11 clinical isolates; assay: Activity against Gardnerella vaginalis, standard two fold dilution methods; conditions: for Number of strains with MIC of 8 mcg/ml: MIC 8 mcg/ml
# Method: The strains were grown on Casman medium (Difco) plus 5% (v/v) whole rabbit blood and 0.15 (v/v) lysed rabbit blood. Inoculum size: approximately 10^4 colony forming units per spot. Incubation in an anaerobic hood: 48 hours at 37° C.
# [7] = test system: Neisseria gonorrhoeae L 997; assay: In vitro activity, M.I.C., microbroth dilution; assay type: cell-based; conditions: salts calculated as weight of purpuromycin, 37° C., 48 h, 5% CO2
# Method: (§2) MIC were determined by the microbroth dilution test. Bacteria were grown at 37° C., fungi at 30° C. Incubation was for 20 h, except for Propionibacterium acnes, Bacteroides fragilis, Neisseria gonorrhoeae, Haemophilus influenzae (48 h) and Trichophyton mentagrophytes (72h) Neisseria gonorrhoeae and Haemophilus influenzae were incubated in a CO2 -enriched (5%) atmosphere; Propionibacterium acnes and Bacteroides fragilis in an anaerobic hood. Media used were: Oxoid Iso-sensitest broth (Staphylococci, Enterococcus faecalis and Escherichia coli); Difco Todd-Hewitt broth (streptococci); Difco GC base broth with 1% BBL IsoVitaleX (Neisseria gonorrhoeae); Difco Brain-Heart Infusion broth with 1% Difco supplement C (Haemophilus influenzae); Difco Wilkins-Chalgren broth (Propionibacterium acnes and Bacteroides fragilis); Difco Yeast Nitrogen Base broth with 1.5 g/1 asparagine (Candida albicans); Difco Sabouraud-dextrose broth (Trichophyton mentagrophytes). Inocula were approximately 10^4 CFU/ml.
# [8] = test system: Propionibacterium acnes ATCC 6919; assay: In vitro activity, M.I.C., microbroth dilution; assay type: cell-based; conditions: salts calculated as weight of purpuromycin, 37° C., 48 h, anaerobic hood
# Method: as §2
# [9] = test system: Haemophilus influenzae ATCC 19418; assay: In vitro activity, M.I.C., microbroth dilution; assay type: cell-based; conditions: salts calculated as weight of purpuromycin; 37° C., 48 h, 5% CO2
# Method: as §2
# [10] = test system: Enterococcus faecalis ATCC 7080; assay: In vitro activity, M.I.C., microbroth dilution; assay type: cell-based; conditions: salts calculated as weight of purpuromycin, 37° C., 20 h
# Method: as §2
# Strep. pneumoniae L44 = assay: In vitro activity, M.I.C., microbroth dilution; assay type: cell-based; conditions: salts calculated as weight of purpuromycin; 37° C., 20 h
# Method: as §2
# Staph. haemolyticus L602 = assay: In vitro activity, M.I.C., microbroth dilution; assay type: cell-based; conditions: salts calculated as weight of purpuromycin, 37° C., 20 h
# Method: as §2
# [11] = test system: Escherichia coli SKF 12140; assay: In vitro activity, M.I.C., microbroth dilution; assay type: cell-based; conditions: salts calculated as weight of purpuromycin; 37° C., 20 h
# Method: as §2
# [12] = test system: Candida albicans SKF 2270; assay: In vitro activity, M.I.C., microbroth dilution; assay type: cell-based; conditions: salts calculated as weight of purpuromycin, 30° C., 20 h
# Method: as §2
# Strep. pyogenes L49 = assay: In vitro activity, M.I.C., microbroth dilution; assay type: cell-based; conditions: salts calculated as weight of purpuromycin, 37° C., 20 h
# Method: as §2
# Staph. aureus Tour L 165 = assay: In vitro activity, M.I.C., microbroth dilution; assay type: cell-based; conditions: salts calculated as weight of purpuromycin, 37° C., 20 h
# Method: as §2
# [13] = test system: Bacteroides fragilis ATCC 23745; assay: In vitro activity, M.I.C., microbroth dilution; assay type: cell-based; conditions: salts calculated as weight of purpuromycin, 37° C., 48 h, anaerobic hood
# Method: as §2
# [14] = test system: Staph. epidermidis ATCC 12228; assay: In vitro activity, M.I.C., microbroth dilution; assay type: cell-based; conditions: salts calculated as weight of purpuromycin, 37° C., 20 h
# Method: as §2
# [15] = test system: Trichophyton mentagrophytes SKF 17410; assay: In vitro activity, M.I.C., microbroth dilution; assay type: cell-based; conditions: salts calculated as weight of purpuromycin, 30° C., 72 h
# Method: as §2
# [16] = test system: Trichomonas vaginalis TVL; assay: In vitro activity, M.I.C., microtiter trays; assay type: cell-based; conditions: salts calculated as weight of purpuromycin, 48 h, anaerobic hood, 37° C.
# Method: MIC were performed in flat-bottomed microtiter trays, with 0.2 ml per well. The medium was TYM modified basal medium (Merck) plus 10% horse serum (treated to inactivate complement). The inoculum was ca. 10^5 organisms/ml; incubation was for 48 h in an anaerobic hood (37° C.).The microtiter wells were read using an inverted light microscope. The MIC was taken as the lowest concentration at which no live (mobile) protozoa were seen.
# [17] = test system: Candida albicans SKF 2270; assay: Activity against Candida strains, two-fold dilution method; assay type: cell-based; conditions: Candida albicans
# Method: (§3) This set of experiments included also one strain each of two other Candida species, Candida tropicalis and Candida kruzei. The M.I.C. were determined by the two-fold dilution method in buffered (0.01 M phosphate buffer, pH 7.4) yeast nitrogen base medium (Difco) supplemented with 1.5 g/liter asparagine in microtiter trays. Inocula were approximately 10^4 colony forming units/ml. Incubation was for 20 h at 30° C. Purpuromycin was dissolved in DMSO and added to the cultures as above.
# [18] = test system: Candida albicans ATCC 10231; assay: as above; assay type: cell-based; conditions: Candida albicans
# Method: as §3
# [19] = conjugate acid of the second basic group; cited from earlier work
# yeasts = conditions: cited from earlier work
# [20] = test system: Candida albicans strain SKF 2270; assay: Topical antifungal activity in ovariectomized rats (yeast vaginal infection); assay type: in vivo, rats (Charles River); conditions: twice daily for three days
# Method: The effectiveness of the water soluble salts of purpuromycin in the topical treatment of yeast vaginal infection was also tested in ovariectomized rats (Charles River) treated subcutaneously with 4 mg of estradiol benzoate approximately two weeks after ovariectomy. Five days later they were inoculated intravaginally with approximately 5×10^6 colony forming units (CFU) of Candida albicans strain SKF 2270 in 25 microliters of Nutrient Broth (no.2, Oxoid) containing 15% (vol/vol) of glycerol. Topical intravaginal therapy was twice daily for three days, starting one day after infection, with 100 microliters of a water soluble salt of purpuromycin suspension in a mixture of 10:90 DMSO-polyethylene glycol 400, corresponding to 2 or 5 mg/rat/treatment. The day after the last treatment, vaginal smear samples (calibrated 10 microliter loops) were diluted and plated for viable organism counts on Sabouraud agar (Difco). Each group contained 10 animals.
smiles,measurement,setting,value
COC1=CC(=O)c2c(O)c3c(c(O)c2C1=O)OC1(C3)CC(O)c2cc3cc(C(=O)O)oc(=O)c3c(O)c2O1 (stereo not shown) [carboxylic acid derivative],activity of degradation product,[1],almost inactive
COC(=O)c1cc2cc3c(c(O)c2c(=O)o1)OC1(Cc2c(O)c4c(c(O)c2O1)C(=O)C(OC)=CC4=O)CC3O (stereo not shown) [arginine salt],stability (in words),Stability,not sufficiently stable
COC(=O)c1cc2cc3c(c(O)c2c(=O)o1)OC1(Cc2c(O)c4c(c(O)c2O1)C(=O)C(OC)=CC4=O)CC3O (stereo not shown) [Purpuromycin],MIC,"[2]; dissolved in DMSO, read-out: minimal inhibitory concentration (M.I.C.)",4 µg/mL
same,MIC,[2]; read-out: MIC,4 µg/mL
same,M.I.C.,Gardnerella vaginalis,16 mg/L
same,stability (in words),Stability,hydrolysis of the carbomethoxy group; also recorded: undergoes a degradation process
same,solubility,"[3]; buffer, pH 8.5, aqueous buffer, pH 8.5 buffer, read-out: solubility in water",22 µg/mL
same,solubility (in words),[3]; solvent,practically insoluble in water and in lower alkanols; also recorded: poorly soluble in most organic solvents
same,in vitro antimicrobial activity,[4],active in vitro against both Gram-positive and Gram-negative bacteria and fungi
same,MIC,Candida kruzei L 244,4 µg/mL
same,MIC,Candida tropicalis L 243,2 µg/mL
same,MIC,[5],1 to 4 µg/mL
same,Number of strains with MIC of 8 mcg/ml,[6]; 12 strains tested,12 strains
same,M.I.C.,[7],0.06 mg/L
same,M.I.C.,[8],0.06 mg/L
same,M.I.C.,[9],0.06 mg/L
same,M.I.C.,[10],0.06 mg/L
same,M.I.C.,Strep. pneumoniae L44,0.06 mg/L
same,M.I.C.,Staph. haemolyticus L602,0.06 mg/L
same,M.I.C.,[11],8 mg/L
same,M.I.C.,[12],1 mg/L
same,M.I.C.,Strep. pyogenes L49,0.06 mg/L
same,M.I.C.,Staph. aureus Tour L 165,0.06 mg/L
same,M.I.C.,[13],0.13 mg/L
same,M.I.C.,[14],0.06 mg/L
same,M.I.C.,[15],1 mg/L
same,M.I.C.,[16],4 mg/L
same,MIC,"[17]; SKF2270, 20 h at 30° C., pH 7.4, read-out: MIC",1 µg/mL
same,MIC,"[18]; ATCC10231, 20 h at 30° C., pH 7.4, read-out: MIC",0.5 µg/mL
N=C(N)NCCC[C@H](N)C(=O)O [arginine],pK3 value,[19],higher than 13
Cc1ncc([N+](=O)[O-])n1CCO [Metronidazole],MIC,[2]; read-out: MIC,0.25 µg/mL
same,activity against yeasts,yeasts,not active against yeasts
same,MIC,"[6]; Gardnerella vaginalis, read-out: MIC on resistant strains",> 32 µg/mL
same,Number of strains with MIC of 4 mcg/ml,"[6]; MIC 4 mcg/ml, 12 strains tested",1 strains
same,Number of strains with MIC of 8 mcg/ml,[6]; 12 strains tested,3 strains
same,Number of strains with MIC of 16 mcg/ml,"[6]; MIC 16 mcg/ml, 12 strains tested",4 strains
same,Number of strains with MIC of 128 mcg/ml,"[6]; MIC 128 mcg/ml, 12 strains tested",3 strains
same,MIC,"[17]; SKF2270, 20 h, comparative tests, antibacterial agents, read-out: M.I.C.",> 128 µg/mL
same,MIC,"[18]; ATCC10231, 20 h, comparative tests, antibacterial agents, read-out: M.I.C.",> 128 µg/mL
"COC(=O)c1cc2cc3c(c(O)c2c(=O)o1)OC1(Cc2c(O)c4c(c(O)c2O1)C(=O)C(OC)=CC4=O)CC3O [Purpuromycin salt with L-lysine (1:1.5), Salt of purpuromycin with L-lysine]",MIC,Gardnerella vaginalis; Gardnerella vaginalis,16 µg/mL
same,pH value of a 0.5% (w/v) solution,[3]; distilled water,8.5
same,solubility in distilled water,"[3]; room temperature, calculated as purpuromycin, listed as Example 2",7400 µg/mL
same,Mean log10 CFU/smear sample ± SD,"[20]; 2 mg/rat/treatment intravaginal, vehicle 3.87 ± 0.50, P < 0.01 vs group 1 controls",2.60 ± 0.49 log10 CFU/smear sample
same,numbers of viable yeasts cell/sample,[20]; topical intravaginal,significantly reduced numbers of viable yeasts cell/sample
same,MIC,"[7]; Neisseria gonorrhoeae, L997",0.06 µg/mL
same,MIC,"[8]; Cutibacterium acnes, ATCC6919",0.06 µg/mL
same,M.I.C.,[9],0.13 mg/L
same,MIC,"[10]; Enterococcus faecalis, ATCC7080",0.06 µg/mL
same,M.I.C.,Strep. pneumoniae L44,0.13 mg/L
same,MIC,"Staph. haemolyticus L602; Staphylococcus haemolyticus, L602",0.06 µg/mL
same,M.I.C.,[11],32 mg/L
same,MIC,"[12]; Candida albicans, SKF2270",1 µg/mL
same,MIC,"Strep. pyogenes L49; Streptococcus pyogenes, L49",0.06 µg/mL
same,MIC,"Staph. aureus Tour L 165; Staphylococcus aureus, TOURL165",0.06 µg/mL
same,MIC,"[13]; Bacteroides fragilis, ATCC23745",0.13 µg/mL
same,MIC,"[14]; Staphylococcus epidermidis, ATCC12228",0.06 µg/mL
same,MIC,"[15]; Trichophyton mentagrophytes, SKF17410",1 µg/mL
same,MIC,[16]; Trichomonas vaginalis,4 µg/mL
